Test results: ChEMBL document CHEMBL1129369, “Forskolin carbamates: binding and activation studies with type I adenylyl cyclase” (J Med Chem, 1996)

Experiments:
Adenylate cyclase type 1 [1] = target: T1, Adenylate cyclase type 1 (Homo sapiens, UniProt Q08828); assay: (§1) Inhibition of [125 I]6-IHPP-forskolin binding to adenylate cyclase 1
Target sequence in this assay (Q08828 whole entry): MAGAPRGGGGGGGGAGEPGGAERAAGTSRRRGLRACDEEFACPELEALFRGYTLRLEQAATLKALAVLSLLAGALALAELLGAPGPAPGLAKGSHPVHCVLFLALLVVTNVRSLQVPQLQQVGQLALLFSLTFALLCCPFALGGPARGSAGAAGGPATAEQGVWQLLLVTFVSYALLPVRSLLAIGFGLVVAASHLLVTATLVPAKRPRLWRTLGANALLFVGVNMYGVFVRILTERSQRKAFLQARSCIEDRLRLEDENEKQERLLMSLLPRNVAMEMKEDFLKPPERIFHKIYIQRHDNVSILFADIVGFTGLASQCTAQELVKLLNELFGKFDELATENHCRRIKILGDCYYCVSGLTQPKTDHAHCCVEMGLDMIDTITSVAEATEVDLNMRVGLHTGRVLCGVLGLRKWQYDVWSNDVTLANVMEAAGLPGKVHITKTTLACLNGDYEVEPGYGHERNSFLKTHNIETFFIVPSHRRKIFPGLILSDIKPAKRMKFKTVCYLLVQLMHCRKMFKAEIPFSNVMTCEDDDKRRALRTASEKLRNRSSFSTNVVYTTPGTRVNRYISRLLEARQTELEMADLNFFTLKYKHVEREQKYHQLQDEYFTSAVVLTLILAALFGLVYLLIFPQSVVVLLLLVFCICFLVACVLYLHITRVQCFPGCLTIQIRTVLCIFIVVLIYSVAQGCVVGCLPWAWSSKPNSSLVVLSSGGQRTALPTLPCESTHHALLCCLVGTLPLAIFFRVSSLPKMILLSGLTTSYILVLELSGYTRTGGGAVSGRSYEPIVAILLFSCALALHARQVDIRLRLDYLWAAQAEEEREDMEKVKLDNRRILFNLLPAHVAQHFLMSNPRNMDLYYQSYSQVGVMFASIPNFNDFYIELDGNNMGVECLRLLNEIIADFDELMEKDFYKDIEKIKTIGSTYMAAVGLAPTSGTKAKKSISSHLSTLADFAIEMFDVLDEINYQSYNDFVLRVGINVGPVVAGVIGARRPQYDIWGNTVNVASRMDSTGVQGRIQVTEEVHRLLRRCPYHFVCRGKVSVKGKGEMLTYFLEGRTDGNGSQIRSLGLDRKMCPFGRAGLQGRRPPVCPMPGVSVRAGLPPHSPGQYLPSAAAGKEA

Adenylate cyclase type 1 [2] = target: T1, Adenylate cyclase type 1; assay: Ability to activate the conversion of [32P] ATP to [32P]-cyclic AMP mediated by adenylate cyclase 1; assay type: functional
Target sequence in this assay (Q08828 whole entry): as above

Adenylate cyclase type 1 [3] = target: T1, Adenylate cyclase type 1; assay: Maximum stimulation activity measured with 100 uM forskolin mediated by adenylate cyclase 1; assay type: functional
Target sequence in this assay (Q08828 whole entry, looked up): as the sequence (Q08828 whole entry) above

Adenylate cyclase type 1 [4] = target: T1, Adenylate cyclase type 1; assay: as §1; remark: listed apart in the source
Target sequence in this assay (Q08828 whole entry): as above

Adenylate cyclase type 1 [5] = target: T1, Adenylate cyclase type 1; assay: Conversion of [32P] ATP to [32P]-cyclic AMP mediated by adenylate cyclase 1; assay type: functional
Target sequence in this assay (Q08828 whole entry): as above

Row | Compound | IC50 (Adenylate cyclase type 1 [1]) | EC50 (Adenylate cyclase type 1 [2]) | Activity (Adenylate cyclase type 1 [3]) | IC50 (Adenylate cyclase type 1 [4]) | EC50 (Adenylate cyclase type 1 [5]; read-out: EC50) | EC50 (Adenylate cyclase type 1 [5])
1 | C=C[C@@]1(C)CC(=O)[C@]2(O)[C@@]3(C)[C@@H](O)CCC(C)(C)[C@@H]3[C@H](OC(=O)NCCC(C)(C)C)[C@H](OC(C)=O)[C@@]2(C)O1 | 271 nM | > 2000 nM | 84% | > 150 nM | 8100 nM | –
2 | C=C[C@@]1(C)CC(=O)[C@]2(O)[C@@]3(C)[C@@H](O)CCC(C)(C)[C@@H]3[C@H](OC(=O)NCCO)[C@H](O)[C@@]2(C)O1 | 230 nM | > 2000 nM | 85% | > 150 nM | 3600 nM | –
3 | C=C[C@@]1(C)CC(=O)[C@]2(O)[C@@]3(C)[C@@H](O)CCC(C)(C)[C@@H]3[C@H](OC(=O)NCCN3CCCCC3)[C@H](OC(C)=O)[C@@]2(C)O1 | 82 nM | < 2000 nM | 100% | < 150 nM | 500 nM | –
4 | C=C[C@@]1(C)CC(=O)[C@]2(O)[C@@]3(C)[C@@H](O)CCC(C)(C)[C@@H]3[C@H](OC(=O)NCCN)[C@H](OC(C)=O)[C@@]2(C)O1 | 31 nM | < 2000 nM | 125% | < 150 nM | 600 nM | –
5 | C=C[C@@]1(C)CC(=O)[C@]2(O)[C@@]3(C)[C@@H](O)CCC(C)(C)[C@@H]3[C@H](OC(=O)NCCC)[C@H](OC(C)=O)[C@@]2(C)O1 | 76 nM | > 2000 nM | 80% | < 150 nM | 4300 nM | –
6 | C=C[C@@]1(C)CC(=O)[C@]2(O)[C@@]3(C)[C@@H](O)CCC(C)(C)[C@@H]3[C@H](OC(=O)NCC(C)C)[C@H](OC(C)=O)[C@@]2(C)O1 | 167 nM | > 2000 nM | 93% | > 150 nM | 4100 nM | –
7 | C=C[C@@]1(C)CC(=O)[C@]2(O)[C@@]3(C)[C@@H](O)CCC(C)(C)[C@@H]3[C@H](OC(=O)NCCc3ccc(O)cc3)[C@H](O)[C@@]2(C)O1 | 236 nM | < 2000 nM | 86% | > 150 nM | 630 nM | –
8 | C=C[C@@]1(C)CC(=O)[C@]2(O)[C@@]3(C)[C@@H](O)CCC(C)(C)[C@@H]3[C@H](OC(=O)NCCOC)[C@H](OC(C)=O)[C@@]2(C)O1 | 32 nM | < 2000 nM | 71% | < 150 nM | 700 nM | –
9 | C=C[C@@]1(C)CC(=O)[C@]2(O)[C@@]3(C)[C@@H](O)CCC(C)(C)[C@@H]3[C@H](O)[C@H](OC(=O)NCCc3ccccn3)[C@@]2(C)O1 | 143 nM | < 2000 nM | 91% | < 150 nM | 1100 nM | –
10 | C=C[C@@]1(C)CC(=O)[C@]2(O)[C@@]3(C)[C@@H](O)CCC(C)(C)[C@@H]3[C@H](OC(=O)NCCC(=O)OCC)[C@H](O)[C@@]2(C)O1 | 171 nM | > 2000 nM | 75% | > 150 nM | 6500 nM | –
11 | C=C[C@@]1(C)CC(=O)[C@]2(O)[C@@]3(C)[C@@H](O)CCC(C)(C)[C@@H]3[C@H](O)[C@H](OC(=O)NCC3CCCCC3)[C@@]2(C)O1 | 1600 nM | > 2000 nM | 44% | > 150 nM | 6400 nM | –
12 | C=C[C@@]1(C)CC(=O)[C@]2(O)[C@@]3(C)[C@@H](O)CCC(C)(C)[C@@H]3[C@H](OC(=O)NCCc3ccccc3)[C@H](O)[C@@]2(C)O1 | 65 nM | < 2000 nM | 72% | < 150 nM | 1100 nM | –
13 | C=C[C@@]1(C)CC(=O)[C@]2(O)[C@@]3(C)[C@@H](O)CCC(C)(C)[C@@H]3[C@H](O)[C@H](OC(=O)NCCC)[C@@]2(C)O1 | 89 nM | < 2000 nM | 101% | < 150 nM | 1300 nM | –
14 | C=CCNC(=O)O[C@H]1[C@@H](O)[C@H]2C(C)(C)CC[C@H](O)[C@]2(C)[C@@]2(O)C(=O)C[C@](C)(C=C)O[C@]12C | 157 nM | > 2000 nM | 102% | > 150 nM | 2400 nM | –
15 | C=CCNC(=O)O[C@H]1[C@H]2C(C)(C)CC[C@H](O)[C@]2(C)[C@@]2(O)C(=O)C[C@](C)(C=C)O[C@]2(C)[C@H]1OC(C)=O | 76 nM | > 2000 nM | 80% | < 150 nM | 4400 nM | –
16 | C=CCNC(=O)O[C@H]1[C@H]2C(C)(C)CC[C@H](O)[C@]2(C)[C@@]2(O)C(=O)C[C@](C)(C=C)O[C@]2(C)[C@H]1O | 306 nM | > 2000 nM | 94% | > 150 nM | 3500 nM | –
17 | C=C[C@@]1(C)CC(=O)[C@]2(O)[C@@]3(C)[C@@H](O)CCC(C)(C)[C@@H]3[C@H](OC(=O)NCCC(=O)OCC)[C@H](OC(C)=O)[C@@]2(C)O1 | 44 nM | > 2000 nM | 157% | < 150 nM | 3500 nM | –
18 | C=C[C@@]1(C)CC(=O)[C@]2(O)[C@@]3(C)[C@@H](O)CCC(C)(C)[C@@H]3[C@H](OC(=O)NCCC(C)(C)C)[C@H](O)[C@@]2(C)O1 | 680 nM | > 2000 nM | 63% | > 150 nM | 2100 nM | –

Row | Compound | IC50 (Adenylate cyclase type 1 [1]) | EC50 (Adenylate cyclase type 1 [2]) | Activity (Adenylate cyclase type 1 [3]) | IC50 (Adenylate cyclase type 1 [4]) | EC50 (Adenylate cyclase type 1 [5]; read-out: EC50) | EC50 (Adenylate cyclase type 1 [5])
19 | C=C[C@@]1(C)CC(=O)[C@]2(O)[C@@]3(C)[C@@H](O)CCC(C)(C)[C@@H]3[C@H](OC(=O)NCCc3ccccc3)[C@H](OC(C)=O)[C@@]2(C)O1 | 36 nM | < 2000 nM | 65% | < 150 nM | 1500 nM | –
20 | C=C[C@@]1(C)CC(=O)[C@]2(O)[C@@]3(C)[C@@H](O)CCC(C)(C)[C@@H]3[C@H](OC(=O)NCCc3ccccn3)[C@H](O)[C@@]2(C)O1 | 117 nM | < 2000 nM | 59% | < 150 nM | 1800 nM | –
21 | C=C[C@@]1(C)CC(=O)[C@]2(O)[C@@]3(C)[C@@H](O)CCC(C)(C)[C@@H]3[C@H](OC(=O)NCC(C)C)[C@H](O)[C@@]2(C)O1 | 593 nM | > 2000 nM | 88% | > 150 nM | 2500 nM | –
22 | C=C[C@@]1(C)CC(=O)[C@]2(O)[C@@]3(C)[C@@H](O)CCC(C)(C)[C@@H]3[C@H](OC(=O)NCC3CCCCC3)[C@H](O)[C@@]2(C)O1 | 433 nM | < 2000 nM | 51% | > 150 nM | 1000 nM | –
23 | C=C[C@@]1(C)CC(=O)[C@]2(O)[C@@]3(C)[C@@H](O)CCC(C)(C)[C@@H]3[C@H](O)[C@H](OC(=O)NCCC(=O)OCC)[C@@]2(C)O1 | 185 nM | > 2000 nM | 127% | > 150 nM | 3600 nM | –
24 | C=C[C@@]1(C)CC(=O)[C@]2(O)[C@@]3(C)[C@@H](O)CCC(C)(C)[C@@H]3[C@H](O)[C@H](OC(=O)NCCc3ccccc3)[C@@]2(C)O1 | 251 nM | > 2000 nM | 75% | > 150 nM | 2100 nM | –
25 | C=C[C@@]1(C)CC(=O)[C@]2(O)[C@@]3(C)[C@@H](O)CCC(C)(C)[C@@H]3[C@H](OC(=O)NCCN)[C@H](O)[C@@]2(C)O1 | 192 nM | – | – | – | – | Indeterminate
26 | C=C[C@@]1(C)CC(=O)[C@]2(O)[C@@]3(C)[C@@H](O)CCC(C)(C)[C@@H]3[C@H](O)[C@H](OC(=O)NCCOC)[C@@]2(C)O1 | 174 nM | > 2000 nM | 97% | > 150 nM | 1600 nM | –
27 | C=C[C@@]1(C)CC(=O)[C@]2(O)[C@@]3(C)[C@@H](O)CCC(C)(C)[C@@H]3[C@H](OC(=O)NCCc3ccccn3)[C@H](OC(C)=O)[C@@]2(C)O1 | 21 nM | < 2000 nM | 97% | < 150 nM | 600 nM | –
28 | C=C[C@@]1(C)CC(=O)[C@]2(O)[C@@]3(C)[C@@H](O)CCC(C)(C)[C@@H]3[C@H](OC(=O)NCCN(C)C)[C@H](O)[C@@]2(C)O1 | 247 nM | > 2000 nM | 131% | > 150 nM | 4900 nM | –
29 | C=C[C@@]1(C)CC(=O)[C@]2(O)[C@@]3(C)[C@@H](O)CCC(C)(C)[C@@H]3[C@H](O)[C@H](OC(=O)NCCC(C)(C)C)[C@@]2(C)O1 | 608 nM | > 2000 nM | 58% | > 150 nM | 9600 nM | –
30 | C=C[C@@]1(C)CC(=O)[C@]2(O)[C@@]3(C)[C@@H](O)CCC(C)(C)[C@@H]3[C@H](O)[C@H](OC(=O)NCCN)[C@@]2(C)O1 | 128 nM | < 2000 nM | 85% | < 150 nM | 700 nM | –
31 | C=C[C@@]1(C)CC(=O)[C@]2(O)[C@@]3(C)[C@@H](O)CCC(C)(C)[C@@H]3[C@H](OC(=O)NCCc3ccc(N)cc3)[C@H](OC(C)=O)[C@@]2(C)O1 | 39 nM | < 2000 nM | 55% | < 150 nM | 500 nM | –
32 | C=C[C@@]1(C)CC(=O)[C@]2(O)[C@@]3(C)[C@@H](O)CCC(C)(C)[C@@H]3[C@H](OC(=O)NCCc3ccc(N)cc3)[C@H](O)[C@@]2(C)O1 | 162 nM | > 2000 nM | 83% | > 150 nM | 5100 nM | –
33 | C=C[C@@]1(C)CC(=O)[C@]2(O)[C@@]3(C)[C@@H](O)CCC(C)(C)[C@@H]3[C@H](O)[C@H](OC(=O)NCC(C)C)[C@@]2(C)O1 | 112 nM | > 2000 nM | 72% | < 150 nM | 2700 nM | –
34 | C=C[C@@]1(C)CC(=O)[C@]2(O)[C@@]3(C)[C@@H](O)CCC(C)(C)[C@@H]3[C@H](OC(=O)NCCN3CCCCC3)[C@H](O)[C@@]2(C)O1 | 123 nM | < 2000 nM | 80% | < 150 nM | 1700 nM | –
35 | C=C[C@@]1(C)CC(=O)[C@]2(O)[C@@]3(C)[C@@H](O)CCC(C)(C)[C@@H]3[C@H](OC(=O)NCCO)[C@H](OC(C)=O)[C@@]2(C)O1 | 142 nM | < 2000 nM | 57% | < 150 nM | 500 nM | –
36 | C=C[C@@]1(C)CC(=O)[C@]2(O)[C@@]3(C)[C@@H](O)CCC(C)(C)[C@@H]3[C@H](OC(=O)NCC3CCCCC3)[C@H](OC(C)=O)[C@@]2(C)O1 | 117 nM | > 2000 nM | 74% | > 150 nM | 6600 nM | –
